Counter-ions that a name gives are not always drawn.
Target: SARS-CoV-2 Mac1 (Severe acute respiratory syndrome coronavirus 2, UniProt P0DTD1)
Assay: biochemical
Settings: for inhibition at 100 µM: read-out: %inhibition; for %inhibition: 100 µM, inhibitor

| Compound | inhibition at 100 µM | %inhibition |
| --- | --- | --- |
| CN(C)[C@@H]1C(O)=C(C(N)=O)C(=O)[C@@]2(O)C(O)=C3C(=O)c4c(O)ccc(Cl)c4[C@@H](O)[C@H]3C[C@@H]12 [Demeclocycline HCl] | 4.3% |  |
| CC(=O)Oc1cccc2c1C(=O)c1c(OC(C)=O)cc(C(=O)O)cc1C2=O [Diacerein] | 3.21% |  |
| Cc1ccc(Sc2ccccc2N2CCNCC2)c(C)c1 [Vortioxetine (Lu AA21004) HBr] |  | 12.23% |
| O=C1OC2(c3ccc(O)cc3Oc3cc(O)ccc32)c2ccccc21 [Fluorescein] | 24.9% |  |
| CCN(CCO)CCCC(C)Nc1ccnc2cc(Cl)ccc12 (centres unmarked) [Hydroxychloroquine Sulfate] |  | 0% |
| O=C1OC(CN2CCOCC2)CN1/N=C/c1ccc([N+](=O)[O-])o1 (centres unmarked) [Furaltadone HCl] | 15.8% |  |
| CCOc1cc2ncc(C#N)c(Nc3ccc(OCc4ccccn4)c(Cl)c3)c2cc1NC(=O)/C=C/CN(C)C [Neratinib (HKI-272)] | 4.82% |  |
| CN(C)CCC(c1ccc(Br)cc1)c1ccccn1 (centres unmarked) [Brompheniramine hydrogen maleate] | 9.47% |  |
| CCN1CCN(C(=O)N[C@@H](C(=O)N[C@@H]2C(=O)N3C(C(=O)O)=C(CSc4nnnn4C)CS[C@H]23)c2ccc(O)cc2)C(=O)C1=O [Cefoperazone] | 0% |  |
| CC(C)(Oc1ccc(Cl)cc1)C(=O)O [Clofibric Acid] | 17.2% |  |
| O=C(Nc1ccccc1)OCC(CN1CCCCC1)OC(=O)Nc1ccccc1 (centres unmarked) [Diperodon HCl] | 0.82% |  |
| CC(=O)Nc1ccccc1 [Acetanilide] | 30.4% |  |
| COc1ccc(C(=O)CC(=O)c2ccc(C(C)(C)C)cc2)cc1 [Avobenzone] | 26.5% |  |
| Cc1cn([C@H]2C[C@H](N=[N+]=[N-])[C@@H](CO)O2)c(=O)[nH]c1=O [Zidovudine] |  | 8.703% |
| Nc1cc(C(Cl)=C(Cl)Cl)c(S(N)(=O)=O)cc1S(N)(=O)=O [Clorsulon] | 7.3% |  |
| Cn1ncc(Cl)c1-c1cc(C(=O)N[C@H](CN)Cc2cccc(F)c2)sc1Cl [Afuresertib (GSK2110183)] | 0% |  |
| CC1=C(C(=O)O)N2C(=O)[C@@H](NC(=O)[C@H](N)c3ccc(O)cc3)[C@H]2SC1 [Cefadroxil hydrate] | 0% |  |
| OB1OCc2cc(F)ccc21 [Tavaborole (AN-2690)] | 0.84% |  |
| CCC(=O)NS(=O)(=O)c1ccc(-c2c(-c3ccccc3)noc2C)cc1 [Parecoxib Sodium] |  | 8.572% |
| CN(C)CCCN1c2ccccc2Sc2ccccc21 [Promazine hydrochloride] | 0% |  |
| CC(C)NCC(O)c1ccc(O)c(O)c1 (centres unmarked) [Isoprenaline HCl] | 5.07% |  |
| C/C(=C\c1csc(C)n1)[C@@H]1C[C@@H]2O[C@]2(C)CCC[C@H](C)[C@H](O)[C@@H](C)C(=O)C(C)(C)[C@@H](O)CC(=O)N1 [Ixabepilone (BMS-247550)] | 5.68% |  |
| CC(O)c1ccc(S(=O)(=O)NC(=O)NC2CCCCC2)cc1 (centres unmarked) [Hydroxyhexamide] | 28% |  |
| CC(C)[N+](C)(CCOC(=O)C1c2ccccc2Oc2ccccc21)C(C)C [Propantheline bromide] | 0% |  |

| Compound | inhibition at 100 µM | %inhibition |
| --- | --- | --- |
| COc1ccc(C(=O)NCc2ccc(OCCN(C)C)cc2)cc1OC [Itopride hydrochloride] | 0% |  |
| CCCCC(=O)O[C@]1(C(=O)CO)[C@@H](C)C[C@H]2[C@@H]3CCC4=CC(=O)C=C[C@]4(C)[C@@]3(F)[C@@H](O)C[C@@]21C [Betamethasone Valerate] | 0% |  |
| Nc1cc(N2CCCCC2)nc(N)[n+]1OS(=O)(=O)[O-] [Minoxidil sulphate] | 19% |  |
| CCN(CC)Cc1cc(Nc2ccnc3cc(Cl)ccc23)ccc1O [Amodiaquine dihydrochloride dihydrate] |  | 0% |
| Cc1ccc(-c2cc(C(F)(F)F)nn2-c2ccc(S(N)(=O)=O)cc2)cc1 [Celecoxib] | 10.4% |  |
| CC(C)NCC(O)COc1ccc(CC(N)=O)cc1 (centres unmarked) [Atenolol] | 0% |  |
| Cc1nccn1CC1CCc2c(c3ccccc3n2C)C1=O (centres unmarked) [Ondansetron Hydrochloride Dihydrate] | 0% |  |
| Cn1ncc(Cl)c1-c1cc(C(=O)N[C@H](CN)Cc2ccc(F)c(F)c2)oc1Cl [Uprosertib (GSK2141795)] | 0% |  |
| CN(C)C(=O)Oc1cccc([N+](C)(C)C)c1 [Neostigmine Bromide] | 0% |  |
| CCC(=O)O[C@]1(C(=O)CCl)[C@@H](C)C[C@H]2[C@@H]3C[C@H](F)C4=CC(=O)C=C[C@]4(C)[C@@]3(F)[C@@H](O)C[C@@]21C [Halobetasol Propionate] | 24.3% |  |
| CC(=O)c1cc2c(o1)C(=O)c1ccccc1C2=O [Napabucasin] | 6.24% |  |
| CC(C)N(CCCCOCC(=O)NS(C)(=O)=O)c1cnc(-c2ccccc2)c(-c2ccccc2)n1 [Selexipag] | 0% |  |
| NC[C@@H]1O[C@H](O[C@H]2[C@@H](O)[C@H](O[C@@H]3[C@@H](O)[C@H](N)C[C@H](N)[C@H]3O[C@H]3O[C@H](CN)[C@@H](O)[C@H](O)[C@H]3N)O[C@@H]2CO)[C@H](N)[C@@H](O)[C@@H]1O [Neomycin sulfate] | 0% |  |
| O=P(O)(O)C(O)(Cc1cccnc1)P(=O)(O)O [Risedronate Sodium] | 8.32% |  |
| CCOC(=O)CCC(=O)O[C@H]1[C@H](O[C@@H]2[C@@H](C)[C@H](O[C@H]3C[C@@](C)(OC)[C@@H](O)[C@H](C)O3)[C@@H](C)C(=O)O[C@H](CC)[C@@](C)(O)[C@H](O)[C@@H](C)C(=O)[C@H](C)C[C@@]2(C)O)O[C@H](C)C[C@@H]1N(C)C [Erythromycin Ethylsuccinate] | 0% |  |
| COc1cc2nccc(Oc3ccc(NC(=O)NC4CC4)c(Cl)c3)c2cc1C(N)=O [Lenvatinib (E7080)] |  | 22.86% |
| CCN(CC)CCNC(=O)c1c(C)[nH]c(/C=C2\C(=O)Nc3ccc(F)cc32)c1C [Sunitinib Malate] | 16.2% |  |
| CC(C)(Oc1ccc(Cl)cc1)C(=O)OCCOC(=O)c1cccnc1 [Etofibrate] | 4.59% |  |
| Clc1ccc(Nc2nnc(Cc3ccncc3)c3ccccc23)cc1 [Vatalanib (PTK787) 2HCl] | 0% |  |
| COc1cc([C@@H]2c3cc4c(cc3[C@@H](O[C@@H]3O[C@@H]5CO[C@@H](C)O[C@H]5[C@H](O)[C@H]3O)[C@H]3COC(=O)[C@H]23)OCO4)cc(OC)c1O [Etoposide] | 25.5% |  |
| CC1(C)[C@@H]2CC[C@@]1(C)C(=O)C2 [(+)-Camphor] | 0% |  |
| Cc1ccc(O)c([C@H](CCN(C(C)C)C(C)C)c2ccccc2)c1 [Tolterodine tartrate] | 34.1% |  |
| Cn1c([N+](=O)[O-])cnc1COC(N)=O [Ronidazole] | 0% |  |
| NC(=O)C1CCCc2c1[nH]c1ccc(Cl)cc21 (centres unmarked) [Selisistat (EX 527)] | 15.7% |  |

| Compound | inhibition at 100 µM | %inhibition |
| --- | --- | --- |
| N[C@@H]1CCCCN(c2c(F)cc3c(=O)c(C(=O)O)cn(C4CC4)c3c2Cl)C1 [Besifloxacin HCl] | 0% |  |
| CN(C)CCCC1(c2ccc(F)cc2)OCc2cc(C#N)ccc21 (centres unmarked) [Citalopram HBr] | 0% |  |
| Nc1nc(N)nc(NC2CC2)n1 [Cyromazine] | 20.5% |  |
| CN1CCOC(c2ccccc2)c2ccccc2C1 (centres unmarked) [Nefopam HCl] | 0% |  |
| CCOc1nc2cccc(C(=O)OC(C)OC(=O)OC3CCCCC3)c2n1Cc1ccc(-c2ccccc2-c2nn[nH]n2)cc1 (centres unmarked) [Candesartan Cilexetil] | 0% |  |
| N[C@H]1C(O)O[C@H](CO)[C@@H](O)[C@@H]1O (some centres unmarked) [Glucosamine hydrochloride] | 0% |  |
| CCCCC(CC)COC(=O)CC(C(=O)OCC(CC)CCCC)S(=O)(=O)O (centres unmarked) [Docusate Sodium] | 14.3% |  |
| c1ccc(C2CN3CCSC3=N2)cc1 (centres unmarked) [Tetramisole HCl] | 0% |  |
| CC(C)C(=O)OCC(=O)[C@@]12O[C@H](C3CCCCC3)O[C@@H]1C[C@H]1[C@@H]3CCC4=CC(=O)C=C[C@]4(C)[C@H]3[C@@H](O)C[C@@]12C [Ciclesonide] | 0% |  |
| Cc1ccc(C(=O)C(C)CN2CCCCC2)cc1 (centres unmarked) [Tolperisone HCl] | 8.81% |  |
| C[C@H]1COc2c(N3CCN(C)CC3)c(F)cc3c(=O)c(C(=O)O)cn1c23 [Levofloxacin hydrate] |  | 0% |
| CC[C@@H](CO)NCCN[C@@H](CC)CO [Ethambutol 2HCl] | 7.53% |  |
| NC[C@H]1O[C@H](O[C@H]2[C@H](O)[C@@H](O[C@H]3O[C@H](CO)[C@@H](O)[C@H](N)[C@H]3O)[C@H](N)C[C@@H]2N)[C@H](N)C[C@@H]1O [Tobramycin] |  | 0% |
| COC(=O)C1=C(C)NC(C)=C(C(=O)O[C@@H]2CCCN(Cc3ccccc3)C2)[C@@H]1c1cccc([N+](=O)[O-])c1 (racemic) [Benidipine HCl] | 4.77% |  |
| C[C@@H]1O[C@@H](O[C@H]2C[C@@H](O)[C@]3(CO)[C@H]4[C@H](O)C[C@]5(C)[C@@H](C6=CC(=O)OC6)CC[C@]5(O)[C@@H]4CC[C@]3(O)C2)[C@H](O)[C@H](O)[C@H]1O [Ouabain] | 0% |  |
| CCOC(=O)[C@@H](N)Cc1ccc(-c2cc(O[C@H](c3ccc(Cl)cc3-n3ccc(C)n3)C(F)(F)F)nc(N)n2)cc1 [Telotristat Etiprate (LX 1606 Hippurate)] | 0% |  |
| Cc1c(C)c2c(c(C)c1O)CCC(C)(COc1ccc(CC3SC(=O)NC3=O)cc1)O2 (centres unmarked) [Troglitazone (CS-045)] | 5.13% |  |
| CC[C@H]1OC(=O)[C@H](C)[C@@H](O[C@H]2C[C@@](C)(OC)[C@@H](O)[C@H](C)O2)[C@H](C)[C@@H](O[C@@H]2O[C@H](C)C[C@H](N(C)C)[C@H]2O)[C@](C)(O)C[C@@H](C)C(=O)[C@H](C)[C@@H](O)[C@]1(C)O [Erythromycin] |  | 0% |
| COc1nc(C)cnc1NS(=O)(=O)c1cccnc1-c1ccc(-c2nnco2)cc1 [Zibotentan (ZD4054)] | 7.65% |  |
| Nc1ccn([C@@H]2O[C@H](CO)[C@@H](O)C2(F)F)c(=O)n1 [Gemcitabine] |  | 32.55% |
| C1N2CN3CN1CN(C2)C3 [Methenamine] | 1.76% |  |
| CCN(CC)CCNC(=O)c1ccc(N)cc1 [Procainamide HCl] | 17.1% |  |
| C[N+](C)(C)CCO [Choline Chloride] | 0% |  |
